Bounds are passed on as bounds.

For 13 compounds, mortality and pest or weed control results are on record in patent US10882869B2, “Condensed heterocyclic compounds and pesticides” (NISSAN CHEMICAL CORPORATION, priority 2015, dated 2021).

What all share (type): in vivo
In assay [1] the test system is Frankliniella occidentalis. Briefly: Insecticidal activity on Frankliniella occidentalis (kidney bean leaf spray). As to conditions: 48 h, 500 ppm solution sprayed (2.5 mg/cm^2), larvae on kidney bean leaves, 2 days after. As for the experimental part: In styrol cups having an inner diameter of 7 cm, wet filter paper was laid, kidney bean leaves cut into a 3 cm square were laid on the paper, and each leaf was inoculated with 20 larvae of Frankliniella occidentalis. […] 2.5 ml of the solutions were sprayed from a rotary spray tower into the styrol cups (2.5 mg/cm^2).
2 Days after, dead insects were counted, and insect damage on kidney bean leaves was examined. The mortality was calculated by using the same equation as in Test Example 1.
The insect damage degree was evaluated as follows. 1: 0 to 20% insect damage, 2: 20 to 50% insect damage, 3: 50 to 70% insect damage, and 4: 70% or higher insect damge. The test was carried out in duplicate.

A further assay has as its system Ctenocephalides felis. Nature of the assay: Test on the effect on Ctenocephalides felis (thin film in glass container). As to conditions: 96 h, application dose 10 μg/cm^2, adults, 4 days after release, 25° C. As for the experimental part:
350 μl of the solutions were applied to the bottoms and the side walls of glass containers with an inner wall surface area of 35 cm^2, and acetone was volatilized to prepare thin films of the compounds on the inner walls of the glass containers. Since the inner wall surface area of each glass container was 35 cm^2, the application dose was 10 μg/cm^2.
To each glass container, five adults (male and female) of Ctenocephalides felis were released, and the containers were covered with lids and placed in an incubator at 25° C. 4 Days after the release of the fleas, dead fleas were counted, and the mortality was calculated by using the same equation as in Test Example 1.

Another assay deals with Spodoptera litura. Briefly: Insecticidal test on Spodoptera litura (cabbage leaves soaked). The following applies: 144 h, 500 ppm solution, 3rd-instar larvae, 6 days after, 25° C. As for the experimental part: Leaves of cabbage were soaked in the solutions for about 10 seconds. After the soaking, the leaves were dried in air and placed in dishes. In each dish, five 3rd-instar larvae of Spodoptera litura were released, and the dishes were covered with lids and placed in an incubator at 25° C. 6 Days after, dead insects in the dishes were counted, and the mortality was calculated by using the same equation as in Test Example 1. The test was carried out in duplicate.

Assay [2] concerns Plutella xylostella. Nature of the assay: Soil irrigation test on Plutella xylostella. As to conditions: 144 h, 500 ppm solution, 10 ml soil irrigation of cabbage seedlings, leaves picked 5 days after, 3rd-instar larvae, 6 days after. As for the experimental part: The soil around the bases of cabbage seedlings (at the 2.5-leaf stage) planted in plastic cups was irrigated with 10 ml of the solutions. After the irrigation, the cabbage seedlings were placed in a greenhouse. 5 Days after the irrigation, leaves of cabbage were picked and placed in dishes. In each dish, five 3rd-instar larvae of Plutella xylostella were released, and the dishes were covered with lids and placed in an incubator at 25° C. 6 Days after, dead insects in the dishes were counted, and the mortality was calculated by using the same equation as in Test Example 1. The test was carried out in duplicate.

The test system of assay [3] is Nilaparvata lugens. Nature of the assay: Systemic insecticidal test on Nilaparvata lugens (rice seedling root dip). The following applies: 20 ppm solution, rice seedling roots dipped 7 days, 3rd-instar larvae, 6 days after release, 25° C. As for the experimental part:
7 Days after, the rice seedlings were picked and put in test tubes, and in each tube, five 3rd-instar larvae of Nilaparvata lugens were released, and the tubes were capped with sponge and placed in an incubator at 25° C. 6 Days after the release of the insects, dead insects were counted, and the mortality (%) (the number of dead insects÷the number of released insects×100) was calculated. The test was carried out in duplicate.

The subject of assay [4] is Nilaparvata lugens. Nature of the assay: Insecticidal test on Nilaparvata lugens (rice sheaths soaked). The following applies: 144 h, 500 ppm solution, 3rd-instar larvae, 6 days after, 25° C. As for the experimental part: Rice sheaths were soaked in the solutions for about 10 seconds. After the soaking, the rice sheaths were dried in air and put in test tubes. In each tube, five 3rd-instar larvae of Nilaparvata lugens were released, and the tubes were capped with sponge and placed in an incubator at 25° C. 6 Days after, dead insects in the test tubes were counted, and the mortality (%) (the number of dead insects÷the number of released insects×100) was calculated. The test was carried out in duplicate.

Assay [5] deals with Plutella xylostella. Nature of the assay: Insecticidal test on Plutella xylostella (cabbage leaves soaked). As to conditions: 144 h, 500 ppm solution, 3rd-instar larvae, 6 days after, 25° C. As for the experimental part: Leaves of cabbage were soaked in the solutions for about 10 seconds. After the soaking, the leaves were dried in air and placed in dishes. In each dish, five 3rd-instar larvae of Plutella xylostella were released, and the dishes were covered with lids and placed in an incubator at 25° C. 6 Days after, dead insects in the dishes were counted, and the mortality was calculated by using the same equation as in Test Example 1. The test was carried out in duplicate.

The test system of the next assay is Myzus persicae. Briefly: Insecticidal test on Myzus persicae (cabbage leaf spray). As to conditions: 144 h, 500 ppm solution sprayed (2.5 mg/cm^2), apterous adults on cabbage leaves, 6 days after, 25° C. As for the experimental part: Wet absorbent cotton was laid on glass dishes having an inner diameter of 3 cm, and covered with leaves of cabbage cut into circles of the same diameter, and 4 apterous adults of Myzus persicae were released. […] The solutions were sprayed from a rotary spray tower (2.5 mg/cm^2), and the dishes were covered with lids and placed in an incubator at 25° C. 6 Days after, dead insects were counted, and the mortality was calculated by using the same equation as in Test Example 1. The test was carried out in duplicate.

On to `CCSc1c(-c2nc3cc(C(F)(F)F)cnc3n2C)nc2cc(C(F)(F)F)ncn12` [1-1-055b, 2-[3-(ethylthio)-7-(trifluoromethyl)imidazo[1,2-c]pyrimidin-2-yl]-3-methyl-6-(trifluoromethyl)-3H-imidazo[4,5-b]pyridine], for which the mortality (usually the percentage killed) at 500 ppm in assay [1] is at least 50%.

`CCS(=O)(=O)c1c(-c2nc3cc(C(F)(F)F)nc(C)c3n2C)nc2ccc(C(F)(F)F)cn12` [1-8-003a, 2-[3-(ethylsulfonyl)-6-(trifluoromethyl)imidazo[1,2-a]pyridin-2-yl]-3,4-dimethyl-6-(trifluoromethyl)-3H-imidazo[4,5-c]pyridine]: the mortality at 10 µg/cm2 in the assay on Ctenocephalides felis was at least 50%. The compound further showed a mortality at 500 ppm in the assay on Spodoptera litura of at least 90%. Also, the pest or weed control (commonly how far the test organism was held down) at 500 ppm in the assay on Plutella xylostella [2] was at least 90%.

For the compound `CCS(=O)(=O)c1c(-c2nc3cc([S+]([O-])C(F)(F)F)ccc3o2)nc2ccc(C(F)(F)F)cn12` (centres unmarked) [1-2-002a, 2-[3-(ethylsulfonyl)-6-(trifluoromethyl)imidazo[1,2-a]pyridin-2-yl]-5-[(trifluoromethyl)sulfinyl]benz[d]oxazole], the mortality at 500 ppm in the assay on Spodoptera litura, in the assay with Nilaparvata lugens [4], with Plutella xylostella [5] and with Myzus persicae was at least 90% throughout. The compound further gave a mortality at 20 ppm in the assay with Nilaparvata lugens [3] of at least 90%.

Take `CCS(=O)(=O)c1c(-n2cc3cnc(C(F)(F)F)cc3n2)nc2cc(C(F)(F)F)ccn12` [1-11-001a, 2-[3-(ethylsulfonyl)-7-(trifluoromethyl)imidazo[1,2-a]pyridin-2-yl]-6-(trifluoromethyl)-2H-pyrazolo[4,3-c]pyridine]: the mortality at 10 µg/cm2 in the assay with Ctenocephalides felis is at least 50%. Also, the mortality at 500 ppm in the assay with Spodoptera litura, in the assay on Nilaparvata lugens [4], with Plutella xylostella [5] and in the assay with Myzus persicae was at least 90% each time. Further, in the assay with Nilaparvata lugens [3], the mortality at 20 ppm is at least 90%. The pest or weed control at 500 ppm with Plutella xylostella [2] is at least 90%.

For the compound `CCS(=O)(=O)c1c(-c2cn3ncc(C(F)(F)F)cc3n2)nc2cc(C(F)(F)F)ccn12` [1-4-001a, 2-[3-(ethylsulfonyl)-7-(trifluoromethyl)imidazo[1,2-a]pyridin-2-yl]-7-(trifluoromethyl)imidazo[1,2-b]pyridazine], the mortality at 10 µg/cm2 in the assay with Ctenocephalides felis was at least 50%. In addition, the mortality at 500 ppm in the assay on Spodoptera litura, in the assay with Plutella xylostella [5] and in the assay on Myzus persicae was at least 90% throughout. In the assay with Plutella xylostella [2], the pest or weed control at 500 ppm was at least 90%.

Take `CCS(=O)(=O)c1c(-n2cc3ncc(C(F)(F)F)cc3n2)nc2cc(C(F)(F)F)ccn12` [1-10-002a, 2-[3-(ethylsulfonyl)-7-(trifluoromethyl)imidazo[1,2-a]pyridin-2-yl]-6-(trifluoromethyl)-2H-pyrazolo[4,3-b]pyridine]: in the assay with Ctenocephalides felis, the mortality at 10 µg/cm2 was at least 50%. For the same compound, the mortality at 500 ppm with Spodoptera litura, with Plutella xylostella [5] and in the assay with Myzus persicae was at least 90% each time. In addition, in the assay on Plutella xylostella [2], the pest or weed control at 500 ppm was at least 90%.

With `CCSc1c(-c2nc3cc(C(F)(F)F)cnc3n2C)n(C)c2ccc(C(F)(F)F)cc12` [3-1-001b, 2-[3-(ethylthio)-1-methyl-5-(trifluoromethyl)-1H-indol-2-yl]-3-methyl-6-(trifluoromethyl)-3H-imidazo[4,5-b]pyridine], the mortality at 10 µg/cm2 in the assay on Ctenocephalides felis was at least 50%. Further, the figures for the mortality at 500 ppm (in assay [1]; with Plutella xylostella [5]) were at least 50% and at least 90%, respectively.

In the assay with Ctenocephalides felis, `CCS(=O)(=O)c1c(-c2cn3c(C)nc(C(F)(F)C(F)(F)F)cc3n2)nc2ccc(C(F)(F)F)cn12` [1-3-007a, 2-[3-(ethylsulfonyl)-6-(trifluoromethyl)imidazo[1,2-a]pyridin-2-yl]-5-methyl-7-(perfluoroethyl)imidazo[1,2-c]pyrimidine] yielded a mortality at 10 µg/cm2 of at least 50%. For the same compound, the mortality at 500 ppm in the assay on Spodoptera litura, in the assay on Nilaparvata lugens [4], in the assay on Plutella xylostella [5] and in the assay on Myzus persicae was at least 90% throughout. In addition, the mortality at 20 ppm in the assay with Nilaparvata lugens [3] was at least 90%.

Compound `CCS(=O)(=O)c1c(-c2nc3cc(C(F)(F)F)cnc3n2C)nc2cnc(C(F)(F)F)cn12` [1-1-029a, 2-[3-(ethylsulfonyl)-6-(trifluoromethyl)imidazo[1,2-a]pyrazin-2-yl]-3-methyl-6-(trifluoromethyl)-3H-imidazo[4,5-b]pyridine] yielded a mortality at 10 µg/cm2 in the assay on Ctenocephalides felis of at least 50%. For the same compound, the mortality at 500 ppm in the assay with Spodoptera litura and in the assay with Plutella xylostella [5] was at least 90% in each case. This compound registered a pest or weed control at 500 ppm in the assay on Plutella xylostella [2] of at least 90%.

In the assay with Nilaparvata lugens [3], `CCS(=O)(=O)c1c(-c2nc3cc(C(F)(F)F)cnc3n2C)nc2sc(C(F)(F)F)nn12` [2-1-002a, 5-(ethylsulfonyl)-6-[3-methyl-6-(trifluoromethyl)-3H-imidazo[4,5-b]pyridin-2-yl]-2-(trifluoromethyl)imidazo[2,1-b][1,3,4]thiadiazole] yielded a mortality at 20 ppm of at least 90%. The compound also showed a pest or weed control at 500 ppm in the assay on Plutella xylostella [2] of at least 90%. Moreover, the results for the mortality at 500 ppm (in assay [1]; in the assay on Plutella xylostella [5]; with Myzus persicae) were at least 50%, at least 90% and at least 90%, respectively.

`CCS(=O)(=O)c1c(-c2nc3cc(C(F)(F)F)cnc3n2C)n(C)c2ccc(C(F)(F)F)cc12` [3-1-001a, 2-[3-(ethylsulfonyl)-1-methyl-5-(trifluoromethyl)-1H-indol-2-yl]-3-methyl-6-(trifluoromethyl)-3H-imidazo[4,5-b]pyridine] returned a mortality at 10 µg/cm2 in the assay on Ctenocephalides felis of at least 50%. Besides, the mortality at 500 ppm was at least 90% in the assay on Spodoptera litura, at least 50% in assay [1], at least 90% in the assay with Plutella xylostella [5] and at least 90% in the assay with Myzus persicae.

On to `CCSc1c(-c2nc3cc(C(F)(F)F)cnc3n2C)nc2cc(C(F)(F)F)ccn12` [1-1-002b, 2-[3-(ethylthio)-7-(trifluoromethyl)imidazo[1,2-a]pyridin-2-yl]-3-methyl-6-(trifluoromethyl)-3H-imidazo[4,5-b]pyridine], for which the mortality at 10 µg/cm2 in the assay with Ctenocephalides felis was at least 50%. Further, the mortality at 500 ppm in the assay with Spodoptera litura is at least 90%; in assay [1] it was at least 50%; with Plutella xylostella [5], at least 90%; with Myzus persicae, at least 90%.

The compound `CCSc1c(-c2nc3cc(C(F)(F)F)cnc3n2C)nc2ncc(C(F)(F)F)cn12` [1-1-054b, 2-[3-(ethylthio)-6-(trifluoromethyl)imidazo[1,2-a]pyrimidin-2-yl]-3-methyl-6-(trifluoromethyl)-3H-imidazo[4,5-b]pyridine] came in with a mortality at 10 µg/cm2 with Ctenocephalides felis of at least 50%. The compound also had a mortality at 500 ppm in assay [1] of at least 50%.
